Test results taken from the NIST ThermoML archive (doi:10.1021/je400529k).

Assays:
[1] = xn = mol fraction of the nth substance listed; conditions: 101 kPa, Liquid; for viscosity: Capillary tube (Ostwald / Ubbelohde) method; for mass density: Vibrating tube method
[2] = refractive index (Na D-line) (dimensionless); xn = mol fraction of the nth substance listed; conditions: 101 kPa, Liquid, Standard Abbe refractometry

CC1CCC(C)C(C)C1 (stereo not given) [1,2,4-trimethylcyclohexane] + C1C[C@@H]2[C@H]3CC[C@H](C3)[C@@H]2C1
Conditions | mass density, [1] [kg/m3] | refractive index, [2] | viscosity, [1] [mPa·s]
293.15 K, x2 = 0 | 790.8 | 1.4331 | 0.886
293.15 K, x2 = 0.1 | 804.62 | 1.4381 | 0.986
293.15 K, x2 = 0.1996 | 818.49 | 1.4436 | 1.101
293.15 K, x2 = 0.3002 | 832.73 | 1.449 | 1.23
293.15 K, x2 = 0.4009 | 847.13 | 1.4545 | 1.381
293.15 K, x2 = 0.5001 | 861.44 | 1.4597 | 1.562
293.15 K, x2 = 0.5992 | 875.89 | 1.4651 | 1.759
293.15 K, x2 = 0.6998 | 890.7 | 1.4709 | 2.008
293.15 K, x2 = 0.7997 | 905.51 | 1.476 | 2.277
293.15 K, x2 = 0.9001 | 920.61 | 1.4818 | 2.609
298.15 K, x2 = 0 | 786.92 | – | 0.827
298.15 K, x2 = 0.1 | 800.71 | – | 0.917
298.15 K, x2 = 0.1996 | 814.61 | – | 1.021
298.15 K, x2 = 0.3002 | 828.84 | – | 1.137
298.15 K, x2 = 0.4009 | 843.21 | – | 1.273
298.15 K, x2 = 0.5001 | 857.51 | – | 1.436
298.15 K, x2 = 0.5992 | 871.98 | – | 1.613
298.15 K, x2 = 0.6998 | 886.77 | – | 1.837
298.15 K, x2 = 0.7997 | 901.61 | – | 2.076
298.15 K, x2 = 0.9001 | 916.71 | – | 2.371
303.15 K, x2 = 0 | 783.03 | 1.4285 | 0.774
303.15 K, x2 = 0.1 | 796.8 | 1.4339 | 0.856
303.15 K, x2 = 0.1996 | 810.7 | 1.4392 | 0.95
303.15 K, x2 = 0.3002 | 824.93 | 1.4442 | 1.056
303.15 K, x2 = 0.4009 | 839.3 | 1.4499 | 1.179
303.15 K, x2 = 0.5001 | 853.59 | 1.4554 | 1.326
303.15 K, x2 = 0.5992 | 868.06 | 1.4608 | 1.486
303.15 K, x2 = 0.6998 | 882.85 | 1.4661 | 1.687
303.15 K, x2 = 0.7997 | 897.7 | 1.4718 | 1.901
303.15 K, x2 = 0.9001 | 912.81 | 1.4775 | 2.165
308.15 K, x2 = 0 | 779.13 | – | 0.727
308.15 K, x2 = 0.1 | 792.9 | – | 0.802
308.15 K, x2 = 0.1996 | 806.79 | – | 0.888
308.15 K, x2 = 0.3002 | 821.01 | – | 0.984
308.15 K, x2 = 0.4009 | 835.38 | – | 1.096
308.15 K, x2 = 0.5001 | 849.67 | – | 1.23
308.15 K, x2 = 0.5992 | 864.13 | – | 1.374
308.15 K, x2 = 0.6998 | 878.93 | – | 1.556
308.15 K, x2 = 0.7997 | 893.78 | – | 1.749
308.15 K, x2 = 0.9001 | 908.89 | – | 1.985
313.15 K, x2 = 0 | 775.23 | 1.424 | 0.686
313.15 K, x2 = 0.1 | 788.98 | 1.429 | 0.753
313.15 K, x2 = 0.1996 | 802.87 | 1.4346 | 0.832
313.15 K, x2 = 0.3002 | 817.09 | 1.44 | 0.92
313.15 K, x2 = 0.4009 | 831.45 | 1.4452 | 1.022
313.15 K, x2 = 0.5001 | 845.74 | 1.4508 | 1.144
313.15 K, x2 = 0.5992 | 860.2 | 1.4561 | 1.275
313.15 K, x2 = 0.6998 | 875.01 | 1.4618 | 1.44
313.15 K, x2 = 0.7997 | 889.85 | 1.4676 | 1.615
313.15 K, x2 = 0.9001 | 904.97 | 1.4731 | 1.828
318.15 K, x2 = 0 | 771.32 | – | 0.648
318.15 K, x2 = 0.1 | 785.06 | – | 0.71
318.15 K, x2 = 0.1996 | 798.94 | – | 0.782
318.15 K, x2 = 0.3002 | 813.16 | – | 0.862
318.15 K, x2 = 0.4009 | 827.52 | – | 0.956
318.15 K, x2 = 0.5001 | 841.8 | – | 1.068
318.15 K, x2 = 0.5992 | 856.27 | – | 1.187
318.15 K, x2 = 0.6998 | 871.07 | – | 1.337
318.15 K, x2 = 0.7997 | 885.92 | – | 1.496
318.15 K, x2 = 0.9001 | 901.04 | – | 1.688

CCC1CCCCC1 [ethylcyclohexane] + C1C[C@@H]2[C@H]3CC[C@H](C3)[C@@H]2C1
Conditions | mass density, [1] [kg/m3] | refractive index, [2] | viscosity, [1] [mPa·s]
293.15 K, x2 = 0 | 788.02 | 1.4319 | 0.845
293.15 K, x2 = 0.0997 | 803.52 | 1.4378 | 0.941
293.15 K, x2 = 0.2006 | 818.96 | 1.4437 | 1.052
293.15 K, x2 = 0.3001 | 834.08 | 1.4494 | 1.189
293.15 K, x2 = 0.4003 | 849.15 | 1.4551 | 1.344
293.15 K, x2 = 0.5001 | 863.99 | 1.4605 | 1.514
293.15 K, x2 = 0.6011 | 878.81 | 1.4667 | 1.726
293.15 K, x2 = 0.7 | 893.21 | 1.4717 | 1.965
293.15 K, x2 = 0.8001 | 907.54 | 1.4769 | 2.251
293.15 K, x2 = 0.8996 | 921.66 | 1.4824 | 2.593
298.15 K, x2 = 0 | 784.01 | – | 0.791
298.15 K, x2 = 0.0997 | 799.47 | – | 0.878
298.15 K, x2 = 0.2006 | 814.95 | – | 0.979
298.15 K, x2 = 0.3001 | 830.07 | – | 1.104
298.15 K, x2 = 0.4003 | 845.18 | – | 1.243
298.15 K, x2 = 0.5001 | 860.01 | – | 1.396
298.15 K, x2 = 0.6011 | 874.85 | – | 1.586
298.15 K, x2 = 0.7 | 889.26 | – | 1.8
298.15 K, x2 = 0.8001 | 903.61 | – | 2.055
298.15 K, x2 = 0.8996 | 917.75 | – | 2.358
303.15 K, x2 = 0 | 779.98 | 1.4276 | 0.743
303.15 K, x2 = 0.0997 | 795.44 | 1.4334 | 0.822
303.15 K, x2 = 0.2006 | 810.94 | 1.4389 | 0.914
303.15 K, x2 = 0.3001 | 826.06 | 1.4446 | 1.028
303.15 K, x2 = 0.4003 | 841.18 | 1.4506 | 1.155
303.15 K, x2 = 0.5001 | 856.03 | 1.4559 | 1.293
303.15 K, x2 = 0.6011 | 870.9 | 1.4617 | 1.464
303.15 K, x2 = 0.7 | 885.3 | 1.4674 | 1.656
303.15 K, x2 = 0.8001 | 899.67 | 1.4724 | 1.884
303.15 K, x2 = 0.8996 | 913.82 | 1.4776 | 2.155
308.15 K, x2 = 0 | 775.93 | – | 0.7
308.15 K, x2 = 0.0997 | 791.4 | – | 0.772
308.15 K, x2 = 0.2006 | 806.91 | – | 0.856
308.15 K, x2 = 0.3001 | 822.04 | – | 0.96
308.15 K, x2 = 0.4003 | 837.18 | – | 1.076
308.15 K, x2 = 0.5001 | 852.03 | – | 1.202
308.15 K, x2 = 0.6011 | 866.92 | – | 1.356
308.15 K, x2 = 0.7 | 881.34 | – | 1.53
308.15 K, x2 = 0.8001 | 895.72 | – | 1.735
308.15 K, x2 = 0.8996 | 909.89 | – | 1.976
313.15 K, x2 = 0 | 771.86 | 1.4225 | 0.661
313.15 K, x2 = 0.0997 | 787.34 | 1.4286 | 0.727
313.15 K, x2 = 0.2006 | 802.87 | 1.4343 | 0.804
313.15 K, x2 = 0.3001 | 818 | 1.4401 | 0.9
313.15 K, x2 = 0.4003 | 833.14 | 1.4458 | 1.005
313.15 K, x2 = 0.5001 | 848.02 | 1.4514 | 1.12
313.15 K, x2 = 0.6011 | 862.92 | 1.4572 | 1.261
313.15 K, x2 = 0.7 | 877.36 | 1.4625 | 1.417
313.15 K, x2 = 0.8001 | 891.76 | 1.4679 | 1.602
313.15 K, x2 = 0.8996 | 905.95 | 1.4732 | 1.82
318.15 K, x2 = 0 | 767.78 | – | 0.626
318.15 K, x2 = 0.0997 | 783.25 | – | 0.687
318.15 K, x2 = 0.2006 | 798.78 | – | 0.758
318.15 K, x2 = 0.3001 | 813.96 | – | 0.845
318.15 K, x2 = 0.4003 | 829.08 | – | 0.942
318.15 K, x2 = 0.5001 | 843.99 | – | 1.047
318.15 K, x2 = 0.6011 | 858.88 | – | 1.175
318.15 K, x2 = 0.7 | 873.35 | – | 1.317
318.15 K, x2 = 0.8001 | 887.8 | – | 1.485
318.15 K, x2 = 0.8996 | 901.99 | – | 1.682
